Results published in patent publication US5652237A, “2-substituted-4H-3, 1-benzoxazin-4-ones and benzthiazin-4-ones as inhibitors of complement C1r protease for the treatment of inflammatory processes” (Warner-Lambert Company, priority 1995, dated 1997).
pIC50: −log10 of the molar value.

Target: T1, human C1 r (Homo sapiens, UniProt P00736)
T1 construct: purchased Enzyme Research Labs (South Bend, Ind.)
T1 sequence (P00736 464-705 limits assumed): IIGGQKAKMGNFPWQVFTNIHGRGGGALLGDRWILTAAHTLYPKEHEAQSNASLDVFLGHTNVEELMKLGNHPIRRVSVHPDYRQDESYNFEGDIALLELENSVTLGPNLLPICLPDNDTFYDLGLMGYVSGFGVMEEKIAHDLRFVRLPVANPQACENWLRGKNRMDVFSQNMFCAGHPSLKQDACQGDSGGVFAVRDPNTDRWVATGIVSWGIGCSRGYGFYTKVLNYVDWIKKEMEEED
T1 sequence (P00736 18-463 partner limits assumed): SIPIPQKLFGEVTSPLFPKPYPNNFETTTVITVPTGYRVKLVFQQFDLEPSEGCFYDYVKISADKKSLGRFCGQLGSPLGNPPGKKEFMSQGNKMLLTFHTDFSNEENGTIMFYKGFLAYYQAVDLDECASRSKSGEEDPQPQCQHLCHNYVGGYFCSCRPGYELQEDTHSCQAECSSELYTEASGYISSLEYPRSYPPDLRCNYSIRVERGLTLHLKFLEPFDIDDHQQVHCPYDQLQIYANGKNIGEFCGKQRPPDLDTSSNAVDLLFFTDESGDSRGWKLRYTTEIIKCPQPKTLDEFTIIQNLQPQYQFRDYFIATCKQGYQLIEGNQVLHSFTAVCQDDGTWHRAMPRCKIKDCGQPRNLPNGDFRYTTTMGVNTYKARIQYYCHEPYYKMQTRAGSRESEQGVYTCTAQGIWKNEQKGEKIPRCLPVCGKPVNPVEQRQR
Assay: Assay of C1r Enzyme Activity (Assay 1), thioester substrate z-Gly-Arg-S-Bzl with DTNB
Type: biochemical
Settings: Table 1 and text, pH 7.4-7.5, read-out: Inhibition of Clr Assay 1 (IC50)
Method: Assay of C1 r Enzyme Activity Purified human C1 r was obtained commercially from Enzyme Research Labs (South Bend, Ind.). The enzyme is stored frozen at -70° C. at a stock concentration of about 1 mg/mL of protein until the enzyme is needed. […] The thioester substrate, z-Gly-Arg-S-Bzl, for C1 r assays (McRae, et al., 1981) is obtained commercially from Enzyme System Products (Livermore, Calif.). All other reagents were obtained from Sigma Chemical Co. (St. Louis, Mo.). The procedure for assaying the inhibition of C1 r enzyme activity is as follows. A 5 mM stock solution of z-Gly-Arg-S-Bzl is made in dimethylsulfoxide (DMSO) and stored at room temperature until needed. The stock substrate solution is diluted 3 parts stock substrate solution to 7 parts distilled water to make a 1.5 mM working substrate solution. The working substrate solution is made just before it is needed. A fresh solution of 20 μg/mL of C1 r enzyme is made in 10 mM Tris buffer, pH 7.4. The enzyme solution can be stored on ice for up to an hour. […] Compounds at concentrations ranging from 1 mM to 0.010 mM are dissolved in DMSO and a 10 μL aliquot of each concentration is deposited in a well of a 96-well microtiter plate. Fifty microliters of the working substrate solution and 50 μL of DTNB solution are then dispensed in the wells of the microtiter plate, followed by the immediate addition of 50 μL of the C1 r enzyme solution to start the assay. The assay produces a yellow color that is read in the kinetic mode using a Molecular Devices Thermomax microplate reader set to a wavelength of 405 nm. The assay background is followed by monitoring wells that contain substrate, buffer, and DTNB solutions but no enzyme. All assays are performed in triplicate at each inhibitor concentration tested. Values for each inhibitor concentration are reported as optical density (OD)/minute.

| Structure (SMILES) | pIC50 |
| --- | --- |
| CCN(c1nc2ccccc2c(=O)o1)c1ccccc1I [Example 11, 2-[Ethyl-(2-iodo-phenyl)-amino]-benzo[d][1,3]oxazin-4-one] | < 4.18 |
| Cc1ccccc1Nc1nc2ccccc2c(=O)o1 [Example 51, 2-o-Tolylamino-benzo[d][1,3]oxazin-4-one] | 4.51 |
| CN(C(=O)c1ccccc1)c1nc2ccccc2c(=O)o1 [Example 17, N-Methyl-N-(4-oxo-4H-benzo[d][1,3]oxazin-2-yl)benzamide] | 4.97 |
| O=c1oc(Nc2ccccc2Cl)nc2cc([N+](=O)[O-])ccc12 [Example 52, 2-(2-Chloro-phenylamino)-7-nitro-benzo[d][1,3]oxazin-4-one] | 5.85 |
| O=c1oc(Nc2c(Cl)cccc2Cl)nc2cc(Cl)ccc12 [Example 50, 7-Chloro-2-(2,6-dichloro-phenylamino)-benzo[d][1,3]oxazin-4-one] | 6.40 |
| O=c1oc(Nc2c(Cl)cccc2Cl)nc2ccccc12 [Example 7, 2-(2,6-Dichloro-phenylamino)-benzo[d][1,3]oxazin-4-one] | 5.89 |
| CN(C(=O)c1cccnc1)c1nc2ccccc2c(=O)o1 [Example 62, N-Methyl-N-(4-oxo-4H-benzo[d][1,3]oxazin-2-yl)nicotinamide] | 4.40 |
| O=c1oc(Nc2ccccc2I)nc2cc(C(F)(F)F)ccc12 [Example 31, 2-(2-Iodo-phenylamino)-7-trifluoromethylbenzo[d][1,3]oxazin-4-one] | 6.40 |
| CN(C(=O)c1ccccc1I)c1nc2cccc(Cl)c2c(=O)o1 [Example 54, N-(5-Chloro-4-oxo-4H-benzo[d][1,3]oxazin-2-yl)-2-iodo-N-methyl-benzamide] | 4.44 |
| COc1ccc(C(=O)N(C)c2nc3ccccc3c(=O)o2)cc1 [Example 59, 4-Methoxy-N-methyl-N-(4-oxo-4H-benzo[d][1,3]oxazin-2-yl)-benzamide] | 4.72 |
| O=c1oc(Nc2ccccc2I)nc2cc3ccccc3cc12 [Example 20, 2-(2-Iodo-phenylamino)-naphtho[2,3-d][1,3]oxazin-4-one] | 5.85 |
| O=c1oc(Nc2ccccc2Cl)nc2ccccc12 [Example 2, 2-(2-Chloro-phenylamino)-benzo[d][1,3]oxazin-4-one] | 5.19 |
| CN(C(=O)c1ccccc1I)c1nc2cc(Cl)c(Cl)cc2c(=O)o1 [Example 56, N-(6,7-Dichloro-4-oxo-4H-benzo[d][1,3]oxazin-2-yl)-2-iodo-N-methyl-benzamide] | 5.10 |
| Cc1ccc2c(=O)oc(N(C)C(=O)c3ccccc3I)nc2c1 [Example 55, 2-Iodo-N-methyl-N-(7-methyl-4-oxo-4H-benzo[d][1,3]oxazin-2-yl)-benzamide] | 5.55 |
| CN(C(=O)c1ccco1)c1nc2ccccc2c(=O)o1 [Example 61, Furan-2-carboxylic acid methyl-(4-oxo-4H-benzo[d][1,3]oxazin-2-yl)-amide] | 5.00 |
| O=c1oc(Nc2ccccc2OC(F)(F)F)nc2ccccc12 [Example 9, 2-(2-Trifluoromethoxy-phenylamino)-benzo[d][1,3]oxazin-4-one] | 5.40 |
| CCN(C(=O)c1ccccc1I)c1nc2ccccc2c(=O)o1 [Example 18, N-Ethyl-2-iodo-N-(4-oxo-4H-benzo[d][1,3]oxazin-2-yl)-benzamide] | 5.08 |
| CN(C)c1ccc2c(=O)oc(Nc3ccccc3I)nc2c1 [Example 19, 7-Dimethylamino-2-(2-iodo-phenylamino)-benzo[d][1,3]oxazin-4-one] | < 4.18 |
| CN(C(=O)c1cccc(I)c1)c1nc2ccccc2c(=O)o1 [Example 37, 3-Iodo-N-methyl-N-(4-oxo-4H-benzo[d][1,3]oxazin-2-yl)-benzamide] | 4.70 |
| O=c1oc(Nc2ccccc2I)nc2cccc(Cl)c12 [Example 21, 5-Chloro-2-(2-iodo-phenylamino)-benzo[d][1,3]oxazin-4-one] | 4.84 |

| Structure (SMILES) | pIC50 |
| --- | --- |
| CN(c1nc2ccccc2c(=O)o1)c1ccccc1I [Example 10, 2-[Methyl-(2-iodo-phenyl)-amino]benzo[d][1,3]oxazin-4-one] | 5.85 |
| CN(C(=O)c1ccc(I)cc1)c1nc2ccccc2c(=O)o1 [Example 38, 4-Iodo-N-methyl-N-(4-oxo-4H-benzo[d][1,3]oxazin-2-yl)-benzamide] | 4.48 |
| Cc1cccc2nc(N(C)C(=O)c3ccccc3I)oc(=O)c12 [Example 39, 2-Iodo-N-methyl-N-(5-methyl-4-oxo-4H-benzo[d][1,3]oxazin-2-yl)-benzamide] | < 4.18 |
| O=c1oc(Nc2ccccc2I)nc2ccc(Cl)cc12 [Example 22, 6-Chloro-2-(2-iodo-phenylamino)-benzo[d][1,3]oxazin-4-one] | 5.40 |
| COc1ccc2c(=O)oc(N(C)C(=O)c3ccccc3I)nc2c1 [Example 44, 2-Iodo-N-(7-methoxy-4-oxo-4H-benzo[d][1,3]oxazin-2-yl)-N-methyl-benzamide] | < 4.18 |
| Cc1ccc2nc(Nc3ccccc3I)oc(=O)c2c1 [Example 27, 2-(2-Iodo-phenylamino)-6-methyl-benzo[d][1,3]oxazin-4-one] | < 4.18 |
| CN(C(=O)c1ccccc1F)c1nc2ccccc2c(=O)o1 [Example 33, 2-Fluoro-N-methyl-N-(4-oxo-4H-benzo[d][1,3]oxazin-2-yl)-benzamide] | 4.22 |
| Cc1ccc2c(=O)oc(Nc3ccccc3Cl)nc2c1 [Example 45, 2-(2-Chloro-phenylamino)-7-methyl-benzo[d][1,3]oxazin-4-one] | 5.85 |
| CN(C(=O)c1ccsc1)c1nc2ccccc2c(=O)o1 [Example 32, Thiophene-3-carboxylic acid methyl-(4-oxo-4H-benzo[d][1,3]oxazin-2-yl)-amide] | 5.22 |
| O=c1oc(Nc2ccccc2I)nc2cc(Cl)c(Cl)cc12 [Example 29, 6,7-Dichloro-2-(2-iodo-phenylamino)-benzo[d][1,3]oxazin-4-one] | 6.30 |
| CN(C(=O)c1ccccc1C(F)(F)F)c1nc2ccccc2c(=O)o1 [Example 16, N-Methyl-N-(4-oxo-4H-benzo[d][1,3]oxazin-2-yl)-2-trifluoromethyl-benzamide] | 5.82 |
| Cc1ccc2nc(N(C)C(=O)c3ccccc3I)oc(=O)c2c1 [Example 40, 2-Iodo-N-methyl-N-(6-methyl-4-oxo-4H-benzo[d][1,3]oxazin-2-yl)-benzamide] | 5.89 |
| O=c1oc(Nc2ccc(I)cc2)nc2ccccc12 [Example 6, 2-(4-Iodo-phenylamino)-benzo[d][1,3]oxazin-4-one] | < 4.17 |
| CN(C(=O)c1cccc2ccccc12)c1nc2ccccc2c(=O)o1 [Example 57, Naphthalene-1-carboxylic acid methyl-(4-oxo-4H-benzo[d][1,3]oxazin-2-yl)-amide] | 4.63 |
| O=c1oc(Nc2ccccc2Br)nc2ccccc12 [Example 3, 2-(2-Bromo-phenylamino)-benzo[d][1,3]oxazin-4-one] | 5.29 |
| COc1ccccc1C(=O)N(C)c1nc2ccccc2c(=O)o1 [Example 35, 2-Methoxy-N-methyl-N-(4-oxo-4H-benzo[d][1,3]oxazin-2-yl)-benzamide] | < 4.18 |
| O=c1oc(Nc2ccccc2I)nc2cc(Cl)ccc12 [Example 23, 7-Chloro-2-(2-iodo-phenylamino)-benzo[d][1,3]oxazin-4-one] | 6.15 |
| Cc1cccc2nc(Nc3ccccc3I)oc(=O)c12 [Example 26, 2-(2-Iodo-phenylamino)-5-methyl-benzo[d][1,3]oxazin-4-one] | < 4.18 |
| CSc1ccccc1Nc1nc2ccccc2c(=O)o1 [Example 8, 2-(2-Methylsulfanyl-phenylamino)-benzo[d][1,3]oxazin-4-one] | < 4.18 |
| O=c1oc(Nc2cccc(I)c2)nc2ccccc12 [Example 5, 2-(3-Iodo-phenylamino)-benzo[d][1,3]oxazin-4-one] | < 4.17 |
